The subject of one test is Raji cells. The test can be described thus: Raji human non-Hodgkin's lymphoma model in SCID mice, combination with rituximab.
Test [1] concerns DoTc 4510 (BRCA2 mutated) cells. The test can be described thus: Caspase 3/7 apoptosis Incucyte assay with olaparib, DoTc 4510. The format is cell-based. The note with it: vs 0.05% DMSO, combination also vs single agents p<0.0001. The method, then:
(§1) BT549 (BRCA wild type) (A) and DoTc 4510 (BRCA2 mutated) (B) cells were seeded in duplicate into tissue culture treated black-sided, clear-bottom 96-well plates at 5,000^cells/well and allowed to adhere and establish for 24 h. Cells were treated with indicated concentrations of DMSO, compound 23, or Olaparib (FIGS. 13A and 13B) either alone or in combination and were labelled with 1× Essen Bioscience IncuCyte® Caspase-3/7 Green Reagent (final concentration 5 μM). Treated plates were imaged every 2 hours for 72 hours with the IncuCyte® S3 Live-Cell Analysis System. At each timepoint, one image per well was taken in both brightfield and FITC channels on the IncuCyte® S3 Live-Cell Analysis System. Images were analyzed for number of green objects per mm^2 using the IncuCyte S3 v2017A software.

For test [2], the system named is BT549 (BRCA wild type) cells. The test can be described thus: Caspase 3/7 apoptosis Incucyte assay with olaparib, BT549. The format is cell-based. The following applies: 1 μM compound 23, 0.05 μM olaparib, vs 0.05% DMSO, combination also vs single agents p<0.0001. As to the method:
as §1
Using a caspase 3/7 apoptosis Incucyte assay, the effect of compound 23, PARPi and the combination of compound 23, and PARPi on tumor cell apoptosis was assessed in both BRCA wild type and mutated tumor cell lines in vitro.

The test system of a further test is BT549 tumor cell line. The test can be described thus: Caspase 3/7 apoptosis Incucyte assay with paclitaxel, BT549. It is filed as cell-based. The following applies: 0.1 μM compound 23, 0.002 μM paclitaxel, vs 0.05% DMSO, combination also vs single agents p<0.0001. The method, then:
as §1, with “BT549” for “BT549 (BRCA wild type) (A) and DoTc 4510 (BRCA2 mutated) (B)”, “5,000 ^cells/well” for “5,000^cells/well”, “with” for “with indicated concentrations of”, “Paclitaxel” for “Olaparib (FIGS. 13A and 13B)”, “48” for “72”
Using a caspase 3/7 apoptosis Incucyte® assay, the effect of compound 23, paclitaxel and the combination of compound 23 and paclitaxel on tumor cell apoptosis was assessed in the BT549 tumor cell line (a mammary gland carcinoma) in vitro.

Method for Raji cells: Female CB17 mice with severe combined immunodeficiency (SCID) were intravenously (IV) injected in the tail vein with Raji cells on Day 0 and treated from Day 5 to Day 37 by administration of either: vehicle (0.5% methylcellulose, 0.2% Polysorbate 80 in deionized water+1 eq HCl) daily, orally (PO) or compound 23 at 30 mg/kg daily, PO. Anti-CD20 antibody (rituximab) at 20 mg/kg was intraperitoneally (IP) administered on Day 5, 10, and 15, either alone or in combination with compound 23 at 30 mg/kg daily, PO.

In the case of rituximab [reference compound], the “survival compared to untreated mice” value in the test with Raji cells (compound 23 30 mg/kg daily PO, rituximab 20 mg/kg IP Day 5, 10, 15, p<0.0001) is listed as “significantly higher”. Also, the “survival compared to mice treated with the combination of compound 23 and rituximab” value in the test on Raji cells (p<0.0001) is on record as “significantly lower”.

For `O=C(c1cc(Cc2n[nH]c(=O)c3ccccc23)ccc1F)N1CCN(C(=O)C2CC2)CC1` [olaparib, reference compound], the “tumor cell apoptosis (caspase 3/7)” value in test [1] was “did not significantly increase tumor cell apoptosis”; in test [2], “did not undergo a significant increase in apoptosis”.

For `CC(=O)O[C@H]1C(=O)[C@@]2(C)[C@H]([C@H](OC(=O)c3ccccc3)[C@]3(O)C[C@H](OC(=O)[C@H](O)[C@@H](NC(=O)c4ccccc4)c4ccccc4)C(C)=C1C3(C)C)[C@]1(OC(C)=O)CO[C@@H]1C[C@@H]2O` [paclitaxel, reference compound], the “tumor cell apoptosis (caspase 3/7)” value in the test on BT549 tumor cell line is listed as “did not undergo a significant increase in apoptosis”.

The values above are taken from patent publication US12016860B2, “Combination therapies with Cbl-b inhibitor compounds” (Nurix Therapeutics, Inc., priority 2021, dated 2024).
